24 molecules from patent publication US20250230171A1 (MOMA Therapeutics, Inc., priority 2023, published 2025) can be followed below.

Experiment [1] has as its system DLD1 BRCA2 (−/−) cells. Put plainly: 7-day cell viability assay (CellTiter-Glo), DLD1 BRCA2 (−/−). The settings on record: 7-day CellTiter-Glo, n=2, read-out: Viability IC50 (uM) DLD1 BRCA2 null. Type of experiment: cell-based, human. In outline: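 7-day growth assay in DLD1 cells with or without BRCA2; seeding densities chosen to keep log-linear growth. Compound: 10 uM top, 3-fold, 9 points. Endpoint: CTG ATP luminescence at RT.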
A general note: Cellular ATP, detected with luciferase, serves as a proxy for viable cell number.

Experiment [2] deals with DLD1 WT cells. Description: 7-day cell viability assay (CellTiter-Glo), DLD1 parental (WT). In kind it is cell-based, human. The settings on record: 7-day CellTiter-Glo, n=2.

Read-outs that look alike come from different tables or passages of the source.

The term IC50 denotes the midpoint of a concentration-inhibition curve. Regarding “2′-Chloro-N-(5-(5,6-dimethylpyrazine-2-carbonyl)-5,6-dihydro-4H-pyrrolo[3,4-d]thiazol-2-yl)-5′-methoxy-6-methyl-[4,4′-bipyridine]-3-carboxamide [Example 410]”, the IC50 in experiment [1] was 0.001 to 0.1 µM; in experiment [2], at least 10 µM.

Regarding “2′-Chloro-5′-methoxy-6-methyl-N-(5-(4-methyl-6-(trifluoromethoxy)nicotinoyl)-5,6-dihydro-4H-pyrrolo[3,4-d]thiazol-2-yl)-[4,4′-bipyridine]-3-carboxamide [Example 561]”, the values for the IC50 in experiment [1] and in experiment [2] were 0.001 to 0.1 µM and at least 10 µM, respectively.

With “N-(5-(2-Methoxy-6-(trifluoromethyl)nicotinoyl)-5,6-dihydro-4H-pyrrolo[3,4-d]thiazol-2-yl)-4-(6-methoxyimidazo[1,5-a]pyridin-7-yl)-6-methylnicotinamide [Example 568]”, the values for the IC50 in experiment [1] and in experiment [2] were 0.001 to 0.1 µM and at least 10 µM, respectively.

As for `COc1cnc(Cl)cc1-c1cc(C)ncc1C(=O)Nc1nc2c(s1)CN(C(=O)c1ccc(C#N)cn1)C2` [Example 578], the IC50 is 0.001 to 0.1 µM in experiment [1] (Homo sapiens, DLD-1, 168 h) and 5 to 10 µM in experiment [2] (Homo sapiens, DLD-1, 168 h).

With `COc1cnc(Cl)cc1-c1cc(C)ncc1C(=O)Nc1nc2c(s1)CN(C(=O)c1nc(C)cnc1C)C2`, the IC50 in experiment [1] (Homo sapiens, DLD-1, 168 h) is 0.1 to 0.25 µM; in experiment [2] (Homo sapiens, DLD-1, 168 h) it was at least 10 µM.

Consider `Cc1cc(-c2cc(Cl)cnc2OC(F)F)c(C(=O)Nc2nc3c(s2)CN(C(=O)c2ccc(C(F)F)cn2)C3)cn1` [Example 938, 5-chloro-2-(difluoromethoxy)-N-(5-(5-(difluoromethyl)picolinoyl)-5,6-dihydro-4H-pyrrolo[3,4-d]thiazol-2-yl)-6′-methyl-[3,4′-bipyridine]-3′-carboxamide], for which the IC50 in experiment [1] (Homo sapiens, DLD-1, 168 h) is 0.001 to 0.1 µM; in experiment [2] (Homo sapiens, DLD-1, 168 h) it was at least 10 µM.

As for “N-(5-(2-Chloro-3-(difluoromethyl)benzoyl)-5,6-dihydro-4H-pyrrolo[3,4-d]thiazol-2-yl)-4-(5-cyano-2-methoxyphenyl)-6-methylnicotinamide [Example 443]”, the IC50 was 0.001 to 0.1 µM in experiment [1] and at least 10 µM in experiment [2].

Turning to `COc1cnc(Cl)cc1-c1cc(C)ncc1C(=O)Nc1nc2c(s1)CN(C(=O)c1cnc(OC(F)F)cc1Cl)C2`, the IC50 in experiment [1] (Homo sapiens, DLD-1, 168 h) was 0.001 to 0.1 µM; in experiment [2] (Homo sapiens, DLD-1, 168 h) it was at least 10 µM.

For the molecule `COc1cnc(Cl)cc1-c1cc(C)ncc1C(=O)Nc1nc2c(s1)CN(C(=O)c1cc(C)nc3ccnn13)C2`, the IC50 in experiment [1] (Homo sapiens, DLD-1, 168 h) was 0.001 to 0.1 µM; in experiment [2] (Homo sapiens, DLD-1, 168 h), at least 10 µM.

For `COc1cnc(Cl)cc1-c1cc(C)ncc1C(=O)Nc1nc2c(s1)CN(C(=O)c1nc(C(F)(F)F)ccc1F)C2` [Example 936, 2′-chloro-N-(5-(3-fluoro-6-(trifluoromethyl)picolinoyl)-5,6-dihydro-4H-pyrrolo[3,4-d]thiazol-2-yl)-5′-methoxy-6-methyl-[4,4′-bipyridine]-3-carboxamide], the IC50 is 0.001 to 0.1 µM in experiment [1] (Homo sapiens, DLD-1, 168 h) and at least 10 µM in experiment [2] (Homo sapiens, DLD-1, 168 h).

For `COc1cnc(Cl)cc1-c1cc(C)ncc1C(=O)Nc1nc2c(s1)CN(C(=O)c1ncc(OC(F)F)cc1C)C2`, the IC50 in experiment [1] (Homo sapiens, DLD-1, 168 h) was 0.001 to 0.1 µM; in experiment [2] (Homo sapiens, DLD-1, 168 h), at least 10 µM.

As for `COc1cnc(Cl)cc1-c1cc(C)ncc1C(=O)Nc1nc2c(s1)CN(C(=O)c1ccc(C(F)(F)F)nc1Cl)C2` [Example 923, 2′-chloro-N-(5-(2-chloro-6-(trifluoromethyl)nicotinoyl)-5,6-dihydro-4H-pyrrolo[3,4-d]thiazol-2-yl)-5′-methoxy-6-methyl-[4,4′-bipyridine]-3-carboxamide], the IC50 in experiment [1] (Homo sapiens, DLD-1, 168 h) is 0.001 to 0.1 µM; in experiment [2] (Homo sapiens, DLD-1, 168 h) it was at least 10 µM.

For `COc1cnc(Cl)cc1-c1cc(C)ncc1C(=O)Nc1nc2c(s1)CN(C(=O)c1nc(C(F)F)ccc1C)C2`, the IC50 was 0.001 to 0.1 µM in experiment [1] (Homo sapiens, DLD-1, 168 h) and at least 10 µM in experiment [2] (Homo sapiens, DLD-1, 168 h).

With `COc1cnc(Cl)cc1-c1cc(C)ncc1C(=O)Nc1nc2c(s1)CN(C(=O)c1ccc(C(F)(F)F)nc1OC)C2C` (stereo not drawn) [Example 1033, 2′-chloro-5′-methoxy-N-(5-(2-methoxy-6-(trifluoromethyl)nicotinoyl)-4-methyl-5,6-dihydro-4H-pyrrolo[3,4-d]thiazol-2-yl)-6-methyl-[4,4′-bipyridine]-3-carboxamide], the IC50 in experiment [1] (Homo sapiens, DLD-1, 168 h) was 0.001 to 0.1 µM; in experiment [2] (Homo sapiens, DLD-1, 168 h), at least 10 µM.

As for `COc1cnc(Cl)cc1-c1cc(C)ncc1C(=O)Nc1nc2c(s1)CN(C(=O)c1ccc(OC(F)(F)F)c(Cl)n1)C2` [Example 997], the IC50 in experiment [1] (Homo sapiens, DLD-1, 168 h) was 0.001 to 0.1 µM; in experiment [2] (Homo sapiens, DLD-1, 168 h), at least 10 µM.

As for `COc1cnc(Cl)cc1-c1cc(C)ncc1C(=O)Nc1nc2c(s1)CN(Cc1cccc(C(F)F)n1)C2`, the half-maximal inhibitory concentration (IC50) in experiment [1] (Homo sapiens, DLD-1, 168 h) is 0.001 to 0.1 µM; in experiment [2] (Homo sapiens, DLD-1, 168 h), at least 10 µM.

Consider `COc1cnc(C)c(F)c1-c1cc(C)ncc1C(=O)Nc1nc2c(s1)CN(C(=O)c1ccc(C(F)(F)F)nc1OC)C2` [Example 1029, 3′-fluoro-5′-methoxy-N-(5-(2-methoxy-6-(trifluoromethyl)nicotinoyl)-5,6-dihydro-4H-pyrrolo[3,4-d]thiazol-2-yl)-2′,6-dimethyl-[4,4′-bipyridine]-3-carboxamide], for which the IC50 in experiment [1] (Homo sapiens, DLD-1, 168 h) was 0.001 to 0.1 µM; in experiment [2] (Homo sapiens, DLD-1, 168 h), at least 10 µM.

Take `COc1cnc(Cl)cc1-c1cc(C)ncc1C(=O)Nc1nc2c(s1)CN(C(=O)c1ncc(C(F)F)cc1C)C2`: the IC50 in experiment [1] (Homo sapiens, DLD-1, 168 h) is 0.001 to 0.1 µM; in experiment [2] (Homo sapiens, DLD-1, 168 h), at least 10 µM.

With `COc1cnc(Cl)cc1-c1cc(C)ncc1C(=O)Nc1nc2c(s1)CN(C(=O)[C@H]1CC[C@@H](OC(F)(F)F)CC1)C2` [Example 925], the IC50 in experiment [1] (Homo sapiens, DLD-1, 168 h) lay within 0.001 to 0.1 µM; in experiment [2] (Homo sapiens, DLD-1, 168 h), 5 to 10 µM.

As for `COc1cnc(C(F)F)cc1-c1cc(C)ncc1C(=O)Nc1nc2c(s1)CN(C(=O)c1cccc(C(F)F)n1)C2`, the IC50 in experiment [1] (Homo sapiens, DLD-1, 168 h) is 0.001 to 0.1 µM; in experiment [2] (Homo sapiens, DLD-1, 168 h), at least 10 µM.

Turning to `COc1cnc(Cl)cc1-c1cc(C)ncc1C(=O)Nc1nc2c(s1)CN(C(=O)c1nc(C)c(C(F)(F)F)cc1F)C2` [Example 1014, 2′-chloro-N-(5-(3-fluoro-6-methyl-5-(trifluoromethyl)picolinoyl)-5,6-dihydro-4H-pyrrolo[3,4-d]thiazol-2-yl)-5′-methoxy-6-methyl-[4,4′-bipyridine]-3-carboxamide], the IC50 is 0.001 to 0.1 µM in experiment [1] (Homo sapiens, DLD-1, 168 h) and at least 10 µM in experiment [2] (Homo sapiens, DLD-1, 168 h).

Take “2′-Chloro-5′-methoxy-6-methyl-N-(5-(3-methyl-5-(trifluoromethoxy)picolinoyl)-5,6-dihydro-4H-pyrrolo[3,4-d]thiazol-2-yl)-[4,4′-bipyridine]-3-carboxamide [Example 560]”: the IC50 in experiment [1] is 0.001 to 0.1 µM; in experiment [2], at least 10 µM.

`COc1cnc(Cl)cc1-c1cc(C)ncc1C(=O)Nc1nc2c(s1)CN(C(=O)c1ncc(C)nc1OC)C2` [Example 905, 2′-chloro-5′-methoxy-N-(5-(3-methoxy-5-methylpyrazine-2-carbonyl)-5,6-dihydro-4H-pyrrolo[3,4-d]thiazol-2-yl)-6-methyl-[4,4′-bipyridine]-3-carboxamide]: the IC50 was 0.001 to 0.1 µM in experiment [1] (Homo sapiens, DLD-1, 168 h) and at least 10 µM in experiment [2] (Homo sapiens, DLD-1, 168 h).

For the molecule “2′-Chloro-N-(5-(5-(difluoromethyl)-3-methoxypyrazine-2-carbonyl)-5,6-dihydro-4H-pyrrolo[3,4-d]thiazol-2-yl)-5′-methoxy-6-methyl-[4,4′-bipyridine]-3-carboxamide [Example 418]”, the IC50 fell in the range of 0.001 to 0.1 µM in experiment [1] and 5 to 10 µM in experiment [2].
